EP4745137A1 (Gluetacs Therapeutics (Shanghai) Co., Ltd., priority 2023, dated 2025)
Read-outs that look alike come from different tables or passages of the source.

Experiments:
SR = assay: Tumor cell proliferation inhibition (CellTiter-Meiluncell Luminescent Cell Viability Assay), SR; settings: Homo sapiens, read-out: inhibitory activity (IC50, nM) against tumor cells proliferation, SR
Vcap = assay: Tumor cell proliferation inhibition (CellTiter-Meiluncell Luminescent Cell Viability Assay), Vcap; settings: Homo sapiens, 96 h, read-out: inhibitory activity (IC50, nM) against tumor cells proliferation, Vcap
TMD8 = assay: Tumor cell proliferation inhibition (CellTiter-Meiluncell Luminescent Cell Viability Assay), TMD8; settings: Homo sapiens
MM.1S = assay: Tumor cell proliferation inhibition (CellTiter-Meiluncell Luminescent Cell Viability Assay), MM.1S; settings: Homo sapiens, MM1.S, read-out: inhibitory activity (IC50, nM) against tumor cells proliferation, MM.1S
Method: (§1) The tumor cells used herein were cultured in a cell culture medium listed in table 2 at 37°C in an incubator with 5% CO2. Prior to experimentation, all cell lines used were correctly identified by STR profiling, and tested negative for mycoplasma contamination using a mycoplasma detection kit through routine screenings.
(§2) On the following day, the test compounds of the present disclosure were subjected to serial dilution. […] Subsequently, 0.5 µL of the test compound dilution was transferred into the 96-well plate containing the cells, with each well containing 100 µL of cell culture medium. […] Into the 96-well plate, the diluted test compounds and corresponding detection reagents were added, resulting in final test compound concentrations of 500 nM and 10 nM, respectively.
(§3) After the cells were treated with the compounds of the present disclosure for a specified period (the treatment durations were shown in Table 3), the cell viability assay reagent was added to the culture medium according to the kit's instructions to determine cell viability. […] All controls were treated using the same procedure as the compounds of the present disclosure. The growth inhibition curves for the compounds of the present disclosure were plotted using Prism GraphPad software, and the IC50 values were calculated therefrom.

MM.1R = assay: Tumor cell proliferation inhibition (CellTiter-Meiluncell Luminescent Cell Viability Assay), MM.1R; settings: Homo sapiens, 96 h, read-out: inhibitory activity (IC50, nM) against tumor cells proliferation, MM.1R
SW620 = assay: Tumor cell proliferation inhibition (CellTiter-Meiluncell Luminescent Cell Viability Assay), SW620; settings: Homo sapiens, SW-620, 96 h, read-out: inhibitory activity (IC50, nM) against tumor cells proliferation, SW620
Method: as §1
(§4) On the following day, the test compounds of the present disclosure were subjected to serial dilution. […] Subsequently, 0.5 µL of the test compound dilution was transferred into the 96-well plate containing the cells, with each well containing 100 µL of cell culture medium. […] Into the 96-well plate, the diluted test compounds and corresponding detection reagents were added, resulting in final test compound concentrations of 500 nM and 10 nM, respectively. The experimental procedure is described below using the diluted 2 µM test compound as an example.
as §3

Jurkat = assay: Tumor cell proliferation inhibition (CellTiter-Meiluncell Luminescent Cell Viability Assay), Jurkat; settings: Homo sapiens, read-out: inhibitory activity (IC50, nM) against tumor cells proliferation, Jurkat
CAL-62 = assay: Tumor cell proliferation inhibition (CellTiter-Meiluncell Luminescent Cell Viability Assay), CAL-62; settings: Homo sapiens, CAL-62, 96 h, read-out: inhibitory activity (IC50, nM) against tumor cells proliferation, CAL-62
[1] = test system: Human acute T lymphocytic leukemia cells (Molt-4); assay: Tumor cell proliferation inhibition (CellTiter-Meiluncell Luminescent Cell Viability Assay), Molt-4; settings: for inhibition at 0.01 µM: MOLT-4, read-out: Inhibition rate (%) at 10 nM; for inhibition at 0.5 µM: MOLT-4, read-out: Inhibition rate (%) at 500 nM
MGC803 = assay: Tumor cell proliferation inhibition (CellTiter-Meiluncell Luminescent Cell Viability Assay), MGC803; settings: Homo sapiens, MGC-803, 96 h, read-out: inhibitory activity (IC50, nM) against tumor cells proliferation, MGC803
MV-4-11 = assay: Tumor cell proliferation inhibition (CellTiter-Meiluncell Luminescent Cell Viability Assay), MV-4-11; settings: Homo sapiens, MV4-11, read-out: inhibitory activity (IC50, nM) against tumor cells proliferation, MV-4-11
Method: as §1, §2, §3

CCRF-CEM = assay: Tumor cell proliferation inhibition (CellTiter-Meiluncell Luminescent Cell Viability Assay), CCRF-CEM; settings: Homo sapiens; for IC50: read-out: inhibitory activity (IC50, nM) against tumor cells proliferation, CCRF-CEM; for inhibition at 0.01 µM: read-out: Inhibition rate (%) at 10 nM; for inhibition at 0.5 µM: read-out: Inhibition rate (%) at 500 nM
NCI-H1975 = assay: Tumor cell proliferation inhibition (CellTiter-Meiluncell Luminescent Cell Viability Assay), NCI-H1975; settings: Homo sapiens
Method: as §1, §4, §3

[2] = test system: Human breast cancer cells (MDA-MB-231); assay: Tumor cell proliferation inhibition (CellTiter-Meiluncell Luminescent Cell Viability Assay), MDA-MB-231; settings: for inhibition at 0.01 µM: MDA-MB-231, read-out: Inhibition rate (%) at 10 nM; for inhibition at 0.5 µM: MDA-MB-231, read-out: Inhibition rate (%) at 500 nM
Method: as §1, §4, §3

WEE1 = target: T1, WEE1 (Homo sapiens, UniProt P30291+Q96SW2); assay: Western-blot assay of substrate protein degradation in hPBMCs, WEE1; type: cell-based; settings: 24 hours of compound treatment, 50 nM and 500 nM tested (concentration behind the class not stated)
T1 construct: endogenous in cells; host or cells: hPBMCs (Milecell Biotechnologies)
T1 sequence (P30291 whole entry): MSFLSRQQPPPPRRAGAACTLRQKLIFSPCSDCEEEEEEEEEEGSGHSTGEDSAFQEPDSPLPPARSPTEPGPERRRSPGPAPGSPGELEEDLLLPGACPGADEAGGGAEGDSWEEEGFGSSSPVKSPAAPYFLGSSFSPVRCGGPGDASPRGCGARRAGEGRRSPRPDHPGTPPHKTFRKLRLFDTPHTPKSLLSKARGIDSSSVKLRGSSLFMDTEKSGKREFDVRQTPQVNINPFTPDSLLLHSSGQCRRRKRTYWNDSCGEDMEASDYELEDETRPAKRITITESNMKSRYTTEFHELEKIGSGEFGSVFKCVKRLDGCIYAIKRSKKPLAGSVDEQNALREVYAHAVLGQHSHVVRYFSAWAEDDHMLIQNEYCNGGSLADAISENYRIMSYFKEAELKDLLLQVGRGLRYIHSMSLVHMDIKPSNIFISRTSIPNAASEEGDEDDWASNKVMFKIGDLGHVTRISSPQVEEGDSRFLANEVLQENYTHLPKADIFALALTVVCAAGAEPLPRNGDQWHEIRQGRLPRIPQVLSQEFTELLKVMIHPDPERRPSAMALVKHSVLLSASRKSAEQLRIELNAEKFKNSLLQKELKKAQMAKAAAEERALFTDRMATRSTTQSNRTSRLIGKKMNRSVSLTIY
T1 sequence (Q96SW2 whole entry): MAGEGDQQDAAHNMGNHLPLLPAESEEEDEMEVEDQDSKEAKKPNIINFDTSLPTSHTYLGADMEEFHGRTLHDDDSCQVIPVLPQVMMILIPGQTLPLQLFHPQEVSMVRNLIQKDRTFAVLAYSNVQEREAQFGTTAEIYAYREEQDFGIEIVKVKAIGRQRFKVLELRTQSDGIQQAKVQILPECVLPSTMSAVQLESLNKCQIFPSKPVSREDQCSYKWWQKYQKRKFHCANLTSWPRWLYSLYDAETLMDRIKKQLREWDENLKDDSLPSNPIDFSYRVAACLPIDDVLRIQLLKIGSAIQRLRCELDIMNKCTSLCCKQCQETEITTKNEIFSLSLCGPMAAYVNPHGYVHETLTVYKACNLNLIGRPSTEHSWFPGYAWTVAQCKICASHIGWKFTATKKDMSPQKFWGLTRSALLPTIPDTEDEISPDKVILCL
T1 sequence (Q16531 whole entry partner): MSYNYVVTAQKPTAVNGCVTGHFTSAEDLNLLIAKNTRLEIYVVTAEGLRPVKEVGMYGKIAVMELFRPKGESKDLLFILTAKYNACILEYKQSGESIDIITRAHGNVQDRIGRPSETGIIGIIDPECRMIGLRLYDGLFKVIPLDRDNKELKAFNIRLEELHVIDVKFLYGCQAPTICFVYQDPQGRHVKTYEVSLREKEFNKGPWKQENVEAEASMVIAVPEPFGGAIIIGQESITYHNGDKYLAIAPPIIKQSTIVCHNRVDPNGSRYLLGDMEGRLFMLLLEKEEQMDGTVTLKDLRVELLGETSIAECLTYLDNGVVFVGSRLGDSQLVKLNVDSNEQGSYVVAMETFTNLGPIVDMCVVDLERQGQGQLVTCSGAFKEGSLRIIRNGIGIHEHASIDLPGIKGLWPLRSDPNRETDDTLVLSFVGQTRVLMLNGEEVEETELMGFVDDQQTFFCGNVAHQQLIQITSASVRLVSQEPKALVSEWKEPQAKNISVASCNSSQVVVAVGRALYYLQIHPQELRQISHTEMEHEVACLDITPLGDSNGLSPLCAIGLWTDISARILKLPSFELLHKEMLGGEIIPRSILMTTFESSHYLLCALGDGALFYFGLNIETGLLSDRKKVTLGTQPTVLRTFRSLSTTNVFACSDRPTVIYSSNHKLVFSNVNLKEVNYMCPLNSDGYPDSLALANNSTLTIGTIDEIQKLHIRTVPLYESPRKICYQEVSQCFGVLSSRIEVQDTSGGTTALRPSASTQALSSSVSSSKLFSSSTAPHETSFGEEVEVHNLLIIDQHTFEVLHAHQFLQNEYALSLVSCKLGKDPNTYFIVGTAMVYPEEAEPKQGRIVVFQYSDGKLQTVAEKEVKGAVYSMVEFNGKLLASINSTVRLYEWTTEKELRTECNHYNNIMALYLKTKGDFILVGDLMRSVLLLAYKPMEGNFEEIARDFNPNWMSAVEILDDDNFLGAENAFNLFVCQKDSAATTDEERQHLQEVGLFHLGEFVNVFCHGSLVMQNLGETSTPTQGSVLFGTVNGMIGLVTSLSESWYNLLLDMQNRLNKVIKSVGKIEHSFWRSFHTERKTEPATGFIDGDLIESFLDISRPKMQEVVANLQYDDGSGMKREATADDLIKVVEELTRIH

IKZF1 = target: T2, IKZF1 (Homo sapiens, UniProt Q13422+Q96SW2); assay: Western-blot assay of substrate protein degradation in hPBMCs, IKZF1; type: cell-based; settings: 24 hours of compound treatment, 50 nM and 500 nM tested (concentration behind the class not stated)
T2 construct: endogenous in cells; host or cells: hPBMCs (Milecell Biotechnologies)
T2 sequence (Q13422 whole entry): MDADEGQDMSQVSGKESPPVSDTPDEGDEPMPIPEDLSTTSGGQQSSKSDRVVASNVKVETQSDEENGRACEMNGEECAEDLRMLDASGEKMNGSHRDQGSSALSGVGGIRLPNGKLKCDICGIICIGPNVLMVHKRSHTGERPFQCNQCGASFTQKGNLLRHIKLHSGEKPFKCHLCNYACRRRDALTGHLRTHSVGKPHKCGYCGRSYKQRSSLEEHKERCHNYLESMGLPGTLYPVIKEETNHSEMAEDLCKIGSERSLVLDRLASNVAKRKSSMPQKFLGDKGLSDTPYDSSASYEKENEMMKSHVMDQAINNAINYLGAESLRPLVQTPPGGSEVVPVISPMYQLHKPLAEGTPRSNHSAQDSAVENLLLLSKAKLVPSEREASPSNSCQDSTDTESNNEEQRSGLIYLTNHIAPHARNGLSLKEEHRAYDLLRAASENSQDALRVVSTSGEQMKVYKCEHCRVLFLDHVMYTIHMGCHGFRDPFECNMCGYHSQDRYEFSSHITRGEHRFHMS
T2 sequence (Q96SW2 whole entry): as the sequence (Q96SW2 whole entry) above
T2 sequence (Q16531 whole entry partner): as the sequence (Q16531 whole entry partner) above

IKZF2 = target: T3, IKZF2 (Homo sapiens, UniProt Q96SW2+Q9UKS7); assay: Western-blot assay of substrate protein degradation in hPBMCs, IKZF2; type: cell-based; settings: 24 hours of compound treatment, 50 nM and 500 nM tested (concentration behind the class not stated)
T3 construct: endogenous in cells; host or cells: hPBMCs (Milecell Biotechnologies)

IKZF3 = target: T4, IKZF3 (Homo sapiens, UniProt Q96SW2+Q9UKT9); assay: Western-blot assay of substrate protein degradation in hPBMCs, IKZF3; type: cell-based; settings: 24 hours of compound treatment, 50 nM and 500 nM tested (concentration behind the class not stated)
T4 construct: endogenous in cells; host or cells: hPBMCs (Milecell Biotechnologies)
T4 sequence (Q9UKT9 whole entry): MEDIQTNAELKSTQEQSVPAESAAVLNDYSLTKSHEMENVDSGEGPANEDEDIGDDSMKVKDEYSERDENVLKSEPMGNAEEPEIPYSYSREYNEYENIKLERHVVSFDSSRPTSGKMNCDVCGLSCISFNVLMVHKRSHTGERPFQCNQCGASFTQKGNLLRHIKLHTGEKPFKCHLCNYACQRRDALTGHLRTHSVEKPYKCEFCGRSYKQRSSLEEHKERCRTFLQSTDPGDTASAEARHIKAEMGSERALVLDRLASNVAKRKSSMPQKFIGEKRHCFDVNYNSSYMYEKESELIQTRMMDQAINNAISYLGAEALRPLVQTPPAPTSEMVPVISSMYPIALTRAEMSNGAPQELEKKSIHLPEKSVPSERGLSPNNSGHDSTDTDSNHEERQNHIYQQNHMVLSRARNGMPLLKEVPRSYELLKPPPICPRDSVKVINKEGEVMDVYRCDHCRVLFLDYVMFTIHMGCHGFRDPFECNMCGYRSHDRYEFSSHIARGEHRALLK
T4 sequence (Q96SW2 whole entry): as the sequence (Q96SW2 whole entry) above
T4 sequence (Q16531 whole entry partner): as the sequence (Q16531 whole entry partner) above

CK1α = target: T5, CK1α (Homo sapiens, UniProt P48729+Q96SW2); assay: Western-blot assay of substrate protein degradation in hPBMCs, CK1α; type: cell-based; settings: 24 hours of compound treatment, 50 nM and 500 nM tested (concentration behind the class not stated)
T5 construct: endogenous in cells; host or cells: hPBMCs (Milecell Biotechnologies)
T5 sequence (P48729 whole entry): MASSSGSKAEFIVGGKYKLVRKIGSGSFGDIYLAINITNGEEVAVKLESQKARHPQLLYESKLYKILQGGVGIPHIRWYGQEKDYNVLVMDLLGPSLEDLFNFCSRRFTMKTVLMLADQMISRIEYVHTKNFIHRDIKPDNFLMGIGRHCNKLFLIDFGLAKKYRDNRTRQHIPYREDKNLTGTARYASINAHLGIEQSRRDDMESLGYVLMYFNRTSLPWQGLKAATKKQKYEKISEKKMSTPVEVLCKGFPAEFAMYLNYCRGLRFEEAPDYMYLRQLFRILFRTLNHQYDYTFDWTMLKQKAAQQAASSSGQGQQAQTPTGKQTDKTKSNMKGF
T5 sequence (Q96SW2 whole entry): as the sequence (Q96SW2 whole entry) above
T5 sequence (Q16531 whole entry partner): as the sequence (Q16531 whole entry partner) above

GSPT1 = target: T6, GSPT1 (Homo sapiens, UniProt P15170+Q96SW2); assay: Western-blot assay of substrate protein degradation in hPBMCs, GSPT1; type: cell-based; settings: 24 hours of compound treatment, 50 nM and 500 nM tested (concentration behind the class not stated)
T6 construct: endogenous in cells; host or cells: hPBMCs (Milecell Biotechnologies)
T6 sequence (P15170 whole entry): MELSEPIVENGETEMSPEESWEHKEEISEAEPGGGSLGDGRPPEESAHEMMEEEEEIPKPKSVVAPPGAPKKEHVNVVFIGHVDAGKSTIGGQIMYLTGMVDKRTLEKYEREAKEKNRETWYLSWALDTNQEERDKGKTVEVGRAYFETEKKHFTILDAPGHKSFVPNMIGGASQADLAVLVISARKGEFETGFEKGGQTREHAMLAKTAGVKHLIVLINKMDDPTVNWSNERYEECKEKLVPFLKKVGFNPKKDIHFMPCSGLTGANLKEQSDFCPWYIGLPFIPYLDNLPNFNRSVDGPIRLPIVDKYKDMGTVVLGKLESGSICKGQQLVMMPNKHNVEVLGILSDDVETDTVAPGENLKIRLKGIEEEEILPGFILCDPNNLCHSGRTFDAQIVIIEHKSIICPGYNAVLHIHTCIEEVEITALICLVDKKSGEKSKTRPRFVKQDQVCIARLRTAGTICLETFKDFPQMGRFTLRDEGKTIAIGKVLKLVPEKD
T6 sequence (Q96SW2 whole entry): as the sequence (Q96SW2 whole entry) above
T6 sequence (Q16531 whole entry partner): as the sequence (Q16531 whole entry partner) above

Kasumi-1 = assay: Tumor cell proliferation inhibition (CellTiter-Meiluncell Luminescent Cell Viability Assay), Kasumi-1; settings: Homo sapiens; for inhibition at 0.01 µM: Kasumi 1, read-out: Inhibition rate (%) at 10 nM; for inhibition at 0.5 µM: Kasumi 1, read-out: Inhibition rate (%) at 500 nM
Method: as §4, §3

| Compound | Weel substrate protein remaining % (WEE1) | IKZF 1 substrate protein remaining % (IKZF1) | IKZF2 substrate protein remaining % (IKZF2) | IKZF3 substrate protein remaining % (IKZF3) | CK1a substrate protein remaining % (CK1α) | GSPT1 substrate protein remaining % (GSPT1) | inhibition at 0.01 µM [1] [%] | inhibition at 0.5 µM [1] [%] | inhibition at 0.01 µM (CCRF-CEM) [%] | inhibition at 0.5 µM (CCRF-CEM) [%] | inhibition at 0.01 µM (Kasumi-1) [%] | inhibition at 0.5 µM (Kasumi-1) [%] | inhibition at 0.01 µM [2] [%] | inhibition at 0.5 µM [2] [%] | also measured |
| --- | --- | --- | --- | --- | --- | --- | --- | --- | --- | --- | --- | --- | --- | --- | --- |
| Nc1cccc2c1C(=O)N(C1CCC(=O)NC1=O)C2=O (centres unmarked) [pomalidomide, reference compound] | – | – | – | – | – | – | – | – | – | – | – | – | – | – | IC50 (SR; 96 h): > 10000 nM; IC50 (SR): > 10000 nM; IC50 (Vcap): > 10000 nM; IC50 (TMD8; TMD8, 96 h, read-out: inhibitory activity (IC50, nM) against tumor cells proliferation, TMD8): 5000 to 10000 nM; IC50 (TMD8; TMD8, read-out: inhibitory activity (IC50, nM) against tumor cells proliferation, TMD8): 5000 to 10000 nM; IC50 (MM.1S): 500 to 1000 nM; IC50 (MM.1R): > 10000 nM; IC50 (SW620): > 10000 nM; IC50 (Jurkat; 96 h): > 10000 nM; IC50 (Jurkat): > 10000 nM; IC50 (CAL-62): > 10000 nM; IC50 ([1]; MOLT-4, 96 h, read-out: inhibitory activity (IC50, nM) against tumor cells proliferation, Molt 4): > 10000 nM; IC50 ([1]; MOLT-4, read-out: inhibitory activity (IC50, nM) against tumor cells proliferation, Molt-4): > 10000 nM; IC50 (MGC803): > 10000 nM; IC50 (MV-4-11): > 10000 nM; IC50 (CCRF-CEM; 96 h): > 10000 nM; IC50 (CCRF-CEM): > 10000 nM; IC50 (NCI-H1975; NCI-H1975, 96 h, read-out: inhibitory activity (IC50, nM) against tumor cells proliferation, H1975): > 10000 nM; IC50 (NCI-H1975; NCI-H1975, read-out: inhibitory activity (IC50, nM) against tumor cells proliferation, H1975): > 10000 nM; IC50 ([2]; MDA-MB-231, 96 h, read-out: inhibitory activity (IC50, nM) against tumor cells proliferation, MDA-MB-231): > 10000 nM |
| O=C1CCC(N2C(=O)c3ccc(CN4CC=C(c5cccc(Cl)c5Cl)CC4)cc3C2=O)C(=O)N1 (centres unmarked) [GT-07842, 5-((4-(2,3-dichlorophenyl)-3,6-dihydropyridin-1(2H)-yl)methyl)-2-(2,6-dioxopiperidin-3-yl)isoindoline-1,3-dione] | B (80%< substrate protein remaining %≤ 100%) | A (0% ≤ substrate protein remaining % ≤ 80%) | A (0% ≤ substrate protein remaining % ≤ 80%) | A (0% ≤ substrate protein remaining % ≤ 80%) | B (80%< substrate protein remaining %≤ 100%) | A (0% ≤ substrate protein remaining % ≤ 80%) | 20 to 30 | 80 to 90 | 20 to 30 | 90 to 100 | 30 to 40 | 40 to 50 | 20 to 30 | 20 to 30 | – |
| O=C1CCC(N2C(=O)c3ccc(CN4CC(=C5CCOc6cc(F)ccc65)C4)cc3C2=O)C(=O)N1 (centres unmarked) [GT-08134, 2-(2,6-dioxopiperidin-3-yl)-5-((3-(7-fluorochroman-4-ylidene)azetidin-1-yl)methyl)isoindoline-1,3-dione] | B (80%< substrate protein remaining %≤ 100%) | A (0% ≤ substrate protein remaining % ≤ 80%) | A (0% ≤ substrate protein remaining % ≤ 80%) | A (0% ≤ substrate protein remaining % ≤ 80%) | B (80%< substrate protein remaining %≤ 100%) | A (0% ≤ substrate protein remaining % ≤ 80%) | – | – | 15 to 20 | 60 to 80 | 10 to 15 | 60 to 80 | 30 to 40 | 20 to 30 | – |
| O=C1CCC(N2C(=O)c3ccc(CN4CCN(c5nc(N6CCCCC6)nc6c5SCC6)CC4)cc3C2=O)C(=O)N1 (centres unmarked) [GT-08003, 2-(2,6-dioxopiperidin-3-yl)-5-((4-(2-(piperidin-1-yl)-6,7-dihydrothieno[3,2-d]pyrimidin-4-yl)piperazin-1-yl)methyl)isoindoline-1,3-dione] | B (80%< substrate protein remaining %≤ 100%) | A (0% ≤ substrate protein remaining % ≤ 80%) | A (0% ≤ substrate protein remaining % ≤ 80%) | A (0% ≤ substrate protein remaining % ≤ 80%) | A (0% ≤ substrate protein remaining % ≤ 80%) | A (0% ≤ substrate protein remaining % ≤ 80%) | 20 to 30 | 90 to 100 | 20 to 30 | 90 to 100 | 5 to 10 | 80 to 90 | 30 to 40 | 30 to 40 | – |
| Nc1cccc2c1CN(C1CCC(=O)NC1=O)C2=O (centres unmarked) [lenalidomide, reference compound] | – | – | – | – | – | – | 15 to 20 | 10 to 15 | 10 to 15 | 10 to 15 | 5 to 10 | 0 to 5 | 15 to 20 | 10 to 15 | – |
